This note sets out measurements from US20250270246A1, “LINCOSAMIDES AND USES THEREOF” (President and Fellows of Harvard College, priority 2022, published 2025).

Where a name gives a salt, the structure may show the parent alone. Read-outs that look alike come from different tables or passages of the source.

Common to all, as to assay: MIC by broth microdilution (CLSI)
What all share (assay type): cell-based
Background: Dilution methods test growth across graded concentrations, often in twofold steps.

Test [1] relates to E. coli ATCC 25922 (HAV#006). The following applies: for MIC: Escherichia coli, ATCC25922, 24 h, read-out: MIC E. coli ATCC 25922. On the procedure:
(§1) Minimum inhibitory concentrations (MICs) were determined by the broth microdilution method following the Clinical and Laboratory Standards Institute (CLSI) guidelines. Test organisms consisted of standard reference strains from the American Type Culture Collection (ATCC; Manassa, VA, USA) and clinical isolates obtained from JMI Laboratories Inc. (North Liberty, IA, USA), Micromyx repository (MMX; Kalamazoo, MI, USA), and Massachusetts Eye and Ear Hospital (Boston, USA). Before the start of the MIC experiment, standard and test compound stock solutions were prepared in dimethyl sulfoxide (DMSO, Aldrich D2650) at a stock concentration of 2,560 μg/mL. The compound concentration range typically employed for each experiment was 64-0.06 μg/mL (2.5% final DMSO concentration). Iboxamycin was used as a comparator in all experiments. All bacterial strains were sub-cultured on blood agar plates (tryptic soy agar with 5% sheep blood, Hardy Diagnostics) and incubated overnight at 35° C. Organisms were suspended in cation-adjusted Mueller-Hinton broth (CaMHB, BD 212322) and optical density was adjusted to 0.5 McFarland standard. Suspensions were further diluted to obtain a final inoculum of 5×10^5 CFU/mL for broth microdilution experiments. The minimum concentration of compound required to inhibit visible bacterial growth after 24 h of incubation was recorded as the MIC in μg/mL. MICs for P. aeruginosa were recorded in cation-adjusted Mueller-Hinton broth which had been pre-treated with Chelex 100 ion exchange resin according to procedures reported in Ito et al. Antimicrob Agents Chemother (2016) 60 (12), 7396-7401.

Test [2] relates to A. baumannii ATCC 19606 (HAV#010). The following applies: for MIC: Acinetobacter baumannii, ATCC19606, 24 h, read-out: MIC A. baumannii ATCC 19606. As to the method: as §1
The subject of test [3] is S. aureus MMX 3035. To be noted: for MIC: Staphylococcus aureus, MMX3035, 24 h, read-out: MIC S. aureus MMX 3035. As to the method:
as §1

The test system of test [4] is E. coli ΔtolC. To be noted: CaMHB, 24 h incubation; for MIC: Escherichia coli, 24 h, read-out: MIC E. coli ΔtolC, ΔtolC. On the procedure: as §1
The test system of test [5] is S. aureus ATCC 29213 (HAV#001). To be noted: for MIC: Staphylococcus aureus, ATCC29213, 24 h, read-out: MIC S. aureus ATCC 29213. As to the method: as §1
In test [6] the test system is S. aureus Clinical (cfr). To be noted: for MIC: Staphylococcus aureus, 24 h, read-out: MIC S. aureus Clinical (cfr). On the procedure: as §1
Test [7] concerns E. faecium JMI-990536. To be noted: for MIC: Enterococcus faecium, JMI990536, 24 h, read-out: MIC E. faecium JMI-990536. On the procedure: as §1
Test [8] relates to E. coli lptD mutant. To be noted: CaMHB, 24 h incubation; for MIC: Escherichia coli, 24 h, read-out: MIC E. coli lptD mutant, lptD mutant / ΔlptD mutant. As to the method: as §1
Test [9] relates to E. faecalis ATCC 29212 (HAV#005). The following applies: for MIC: Enterococcus faecalis, ATCC29212, 24 h, read-out: MIC E. faecalis ATCC 29212. As to the method:
as §1

Test [10] relates to K. pneumoniae JMI-991193. To be noted: for MIC: Klebsiella pneumoniae, JMI991193, 24 h, read-out: MIC K. pneumoniae JMI-991193. As to the method:
as §1

On to `C#C[C@@H]1C/C=C\C[C@@H](NC(=O)[C@H]2NC[C@@H]3C[C@H](CC(C)C)CCO[C@H]32)[C@H]2O[C@H](S1)[C@H](O)[C@@H](O)[C@H]2O` [FSA1607077, (4S,5aS,8S,8aR)—N-((1R,3S,8R,9R,10R,11S,12R,Z)-3-ethynyl-10,11,12-trihydroxy-13-oxa-2-thiabicyclo[7.3.1]tridec-5-en-8-yl)-4-isobutyloctahydro-2H-oxepino[2,3-c]pyrrole-8-carboxamide formate salt], for which the MIC was 4 µg/mL in test [1]; 8 µg/mL in [2]; 4 µg/mL in test [3]; 1 µg/mL in test [4]; ≤ 0.125 µg/mL in test [5]; 16 µg/mL in test [6]. For the same compound, the MIC in test [7] is 2 µg/mL; in test [8] it was 1 µg/mL; in [9], ≤ 0.125 µg/mL; in test [10] it was 16 µg/mL.
With `CC(C)C[C@@H]1CCO[C@@H]2[C@H](CN[C@@H]2C(=O)N[C@H]2[C@H]3O[C@H](SCCC/C=C/[C@H]2C)[C@H](O)[C@@H](O)[C@H]3O)C1` [FSA1609095, (4S,5aS,8S,8aR)-4-isobutyl-N-((1R,8R,9R,10R,11R,12S,13R,E)-11,12,13-trihydroxy-8-methyl-14-oxa-2-thiabicyclo[8.3.1]tetradec-6-en-9-yl) octahydro-2H-oxepino[2,3-c]pyrrole-8-carboxamide formate salt], the “MIC E. coli ATCC 25922” value in test [1] (HAV#006, ATCC 25922, CaMHB, 24 h incubation, formate salt) is 8 µg/mL. In test [2] (HAV#010, ATCC 19606, CaMHB, 24 h incubation, formate salt), the “MIC A. baumannii ATCC 19606” value was 4 µg/mL. The “MIC S. aureus MMX 3035” value in [3] (MMX 3035, CaMHB, 24 h incubation, formate salt) amounted to 2 µg/mL. Further, in [4] (ΔtolC, formate salt), the “MIC E. coli ΔtolC” value stood at 4 µg/mL. Further, the “MIC S. aureus ATCC 29213” value in test [5] (HAV#001, ATCC 29213, CaMHB, 24 h incubation, formate salt) is ≤0.06 µg/mL. In addition, the “MIC S. aureus Clinical (cfr)” value in [6] (Clinical (cfr), CaMHB, 24 h incubation, formate salt) amounted to 8 µg/mL. Also, the “MIC E. faecium JMI-990536” value in test [7] (JMI-990536, CaMHB, 24 h incubation, formate salt) is 2 µg/mL. The “MIC E. coli lptD mutant” value in [8] (lptD mutant / ΔlptD mutant, formate salt) was 0.5 µg/mL. Further, the “MIC E. faecalis ATCC 29212” value in test [9] (HAV#005, ATCC 29212, CaMHB, 24 h incubation, formate salt) was found to be 0.125 µg/mL. Besides, in test [10] (JMI-991193, CaMHB, 24 h incubation, formate salt), the “MIC K. pneumoniae JMI-991193” value came to 16 µg/mL.
Take `CC(C)C[C@@H]1CCO[C@@H]2[C@H](CN[C@@H]2C(=O)N[C@@H]2C/C=C\C[C@@H](CN3CCCC3)S[C@H]3O[C@H]2[C@H](O)[C@H](O)[C@H]3O)C1` [FSA1606086, (4S,5aS,8S,8aR)-4-isobutyl-N-((1R,3S,8R,9R,10R,11S,12R,Z)-10,11,12-trihydroxy-3-(pyrrolidin-1-ylmethyl)-13-oxa-2-thiabicyclo[7.3.1]tridec-5-en-8-yl) octahydro-2H-oxepino[2,3-c]pyrrole-8-carboxamide formate salt]: the MIC in test [1] (HAV#006, ATCC 25922, CaMHB, 24 h incubation) was 64 µg/mL; in test [2] (HAV#010, ATCC 19606, CaMHB, 24 h incubation), > 64 µg/mL; in [3] (MMX 3035, CaMHB, 24 h incubation), 64 µg/mL; in [4] it was 2 µg/mL; in [5] (HAV#001, ATCC 29213, CaMHB, 24 h incubation), 16 µg/mL; in test [6] (Clinical (cfr), CaMHB, 24 h incubation), > 64 µg/mL. Also, the MIC was 16 µg/mL in test [7] (JMI-990536, CaMHB, 24 h incubation); 4 µg/mL in test [8]; 16 µg/mL in [9] (HAV#005, ATCC 29212, CaMHB, 24 h incubation); > 64 µg/mL in test [10] (JMI-991193, CaMHB, 24 h incubation).
Take `CC(C)C[C@@H]1CCO[C@@H]2[C@H](CN[C@@H]2C(=O)N[C@@H]2C/C=C\C[C@@H](c3cn(-c4ccc(F)cc4)nn3)S[C@H]3O[C@H]2[C@H](O)[C@H](O)[C@H]3O)C1` [FSA1608021, (4S,5aS,8S,8aR)—N-((1R,3S,8R,9R,10R,11S,12R,Z)-3-(1-(4-fluorophenyl)-1H-1,2,3-triazol-4-yl)-10,11,12-trihydroxy-13-oxa-2-thiabicyclo[7.3.1]tridec-5-en-8-yl)-4-isobutyloctahydro-2H-oxepino[2,3-c]pyrrole-8-carboxamide formate salt]: the MIC in [1] is 1 µg/mL; in [2], 4 µg/mL; in [3], 2 µg/mL; in test [4] it was 1 µg/mL; in test [5] it was 0.5 µg/mL; in test [6] it was 4 µg/mL. In addition, the MIC came to 0.5 µg/mL in test [7], 0.25 µg/mL in [8], 0.5 µg/mL in test [9] and 4 µg/mL in [10].
